Experimental data reported in US20080014133A1, “Extraction Of Radionuclides By Crown Ether-Containing Extractants” (priority 2004, published 2008).

Experiments:
Format in all cases: physicochemical
[1] = Radiation resistance of the extractants (gamma irradiation)
Text: The radiation resistance of the extractants according to the invention used for extraction radionuclides of strontium or cesium was studied. For this purpose, reaction mixtures consisting of biphase water-organic systems containing extractants based on crown ethers DCH18C6 or DB21C7 in Fluoroheptanol n3 and aqueous nitrate waste solutions, and, for comparison, reaction mixtures containing extractants based on crown ethers Crown XVI or Crown XVII with a cation exchanger—dinanylnaphthalene of sulfonic acids in a matrix solution comprising tributyl phosphate and kerosene were irradiated with gamma-rays […] in a temperature-controlled cell of stainless steel with continuous agitation by bubbling. The maximum integrated radiation dose was equal to 285.3 kGr. The extractant samples were tested and the extraction characteristics were measured before and after the irradiation to determine a decrease of the distribution ratio DMe due to the radiological destruction of extractant components.

[2] = Concentration of crown ether in extracted products, dynamic strontium extraction (7.1)
Text: A starting aqueous solution whose composition and concentration of the components are given in Table 3 for a solution No.1 was contacted with the extractant according to the invention containing 0.05 mole/l of DCH18C6 in a solvent containing 20% by volume of synthanol and 80% by volume of Fluoroheptanol n3 in a continuous countercurrent process on a facility with extractors such as “mixer-settler” devices with impulse agitation and phase transportation. The extraction included eight steps of extraction, two washing steps, eight re-extraction steps and two steps of regeneration of the reused extractant.
When running the facility, radiometric monitoring devices were used to control the concentration of strontium in the refined products, re-extracts and reclaims, as well as the concentration of the crown ethers in the extracted products.

[3] = Extraction of cations of different metals (Table 8); details: for Distribution ratios, Pb: initial 0.05 g/l; for Distribution ratios, Mn: initial 0.4 g/l; for Distribution ratios, Ru: initial 0.75 g/l; for Distribution ratios, Ba / Distribution ratios, Cr / Distribution ratios, Cs / Distribution ratios, Sr / Distribution ratios, Zr: initial 1.0 g/l; for Distribution ratios, Ba / Distribution ratios, Al: crown ether 0.05 mol/l in Fluoroheptanol n3 80% / synthanol 20%, nitric acid about 190 g/l; for Distribution ratios, Ca: initial 2.0 g/l; for Distribution ratios, Ni: initial 4.0 g/l; for Distribution ratios, Al: initial 6.0 g/l; for Distribution ratios, Fe / Distribution ratios, Na: initial 10.0 g/l; for Distribution ratios, Rare-earth: initial 25.0 g/l
Text: A process of extraction of cations of different metals from aqueous nitrate solutions was studied by processing them using the extractants according to the invention containing DCH18C6 or DB21C7 in an organic solvent comprising: Fluoroheptanol n3—80% by volume and synthanol—20% by volume at a concentration of crown ethers of 0.05 mol/l and a content of nitric acid about of 190 g/l. For comparison, the data were used given in a patent specification (U.S. Pat. No. 4,749,518, A) describing similar tests of extractants containing Crown XVI or Crown XVII with a cation exchanger—dinanylnaphthalene sulfonic acid in a matrix solution containing tributyl phosphate and kerosene.
The solutions were contacted with the extractants according to the invention in temperature-controlled ([…]) separating funnels for 5 minutes at a ratio of organic and aqueous phases of 1:1. After settling within 60 minutes, the phases were separated, and the aqueous phase was analyzed to determine the concentration of the elements.

[4] = Solubility of crown ethers in water and nitric acid from extractants with different organic solvents
Procedure: The study of solubility of extractants according to the invention and the extractants containing similar crown ethers in other solvents in aqueous and nitrate solutions was carried out.
Taken for the tests were crown ethers containing DCH18C6 or DB21C7 in a concentration of about 0.1 mole/l in different organic solvents. The extractants were mixed with aqueous or nitrate solutions with a content of nitric acid 3 mole/l in a closed thermostatically controlled chamber for 3 hours. Then the obtained water-organic systems were separated. The aqueous part after settling down and filtering was analyzed for a content of crown ethers using photometric measurements.

[5] = Interaction of extractants with sodium (organic/aqueous phase concentration)
Procedure: The characteristics of the extractants according to the invention in the process of extraction of sodium from acidic aqueous solutions of high-level waste were determined. For this purpose, the concentration of sodium in the organic and aqueous phases containing extractants based on DTBDB18C6 or DCH18C6 or DB21C7 in a concentration about of 0.05 mol/l in fluoroheptanol n3 were analyzed.

[6] = Influence of nitric acid concentration on extraction of sodium; details: crown ether about 0.1 mol/l in Fluoroheptanol n3
Procedure: Selected for study were extractants containing crown ethers: DB18C6, DTBDB18C6, DCH18C6 or DB21C7 in a concentration of about 0.1 mol/l in Fluoroheptanol n3. Used as experimental solutions were aqueous solutions of sodium nitrate whose concentration was determined using radiometric techniques on previously added aliquot of a sodium-22 isotope.

[7] = Distribution ratio of cesium extracted in organic solutions of crown ethers (Table 1); details: crown ether 0.1 mole/l in Fluoroheptanol n3; Sr and Cs 1 g/l, nitric acid about 3.0 mol/l
Procedure: Study was carried out for determining the distribution ratios of radionuclides, for example, strontium or cesium to be extracted by the extractants according to the invention containing various crown ethers as a complexing agent: bis(tert-butylbenzo)-18-crown-6 (subsequently referred to as DTBDB18C6), di-isooctylbenzo-18-crown-6 (subsequently referred to as DIODB18C6), bis(tert-butylcyclohexane-18-crown-6 (subsequently referred to as DTBDCH18C6), di-isooxyldicyclohexane-18-crown-6 (subsequently referred to as DIODCH18C6), bicyclohexane-18-crown-6 (subsequently referred to as DCH18C6) or dibenzo-21-crown-7 (subsequently referred to as DB21C7), in an organic solvent according to the invention: polyfluorinated telomeric alcohol 1,1,7-trihydrododecafluoroheptanol-1 (subsequently referred to as fluoroheptanol n3).
For comparison, the distribution ratios of strontium and cesium were determined using extractants containing similar crown ethers in another organic solvent (decane).
Taken for the tests were experimental aqueous nitrate solutions containing strontium and cesium in a concentration of 1 g/l with a content of nitric acid of about 3.0 mol/l.

[8] = solvent 2,2-dihydrotrifluoroethyl pentafluoroethyl ether, H2O
[9] = solvent 2,2-dihydrotrifluoroethyl pentafluoroethyl ether, HNO3 3 mole/l
[10] = solvent Fluoroheptanol n3, HNO3 3 mole/l
[11] = solvent Tetrachloroethane, HNO3 3 mole/l, crown ether about 0.1 mole/l, 3 hours
[12] = solvent Trichlorethylene, HNO3 3 mole/l
[13] = solvent Trichlorobenzene, HNO3 3 mole/l
[14] = sodium in the aqueous phase 0.01 mol/l, crown ether about 0.05 mol/l in fluoroheptanol n3
[15] = sodium in the aqueous phase 0.1 mol/l, crown ether about 0.05 mol/l
[16] = sodium in the aqueous phase 0.2 mol/l, crown ether about 0.05 mol/l
[17] = sodium in the aqueous phase 0.4 mol/l, crown ether about 0.05 mol/l

C1CCC2OCCOCCOC3CCCCC3OCCOCCOC2C1 (stereo not drawn) [DCH18C6, bicyclohexane-18-crown-6]
Distribution ratio before irradiation ([1]; Sr): 3.6
Distribution ratio DMe after irradiation ([1]; Sr, dose 100.0 kGr (10^7 rad)): 3.4
Distribution ratio after irradiation, % of original ([1]; Sr, dose 100.0 kGr (10^7 rad)): 94.4%
Distribution ratio DMe after irradiation ([1]; Sr, dose 285.3 kGr): 3.0
Distribution ratio after irradiation, % of original ([1]; Sr, dose 285.3 kGr): 83.3%
Concentration of crown ether in the extracted products ([2]; Re-extract): 172 Mg/l
Concentration of crown ether in the extracted products ([2]; Reclaim): 30 Mg/l
Concentration of crown ether in the extracted products ([2]; Refined product): 80 Mg/l
Distribution ratios, Pb ([3]; same extractant conditions): 4.2
Distribution ratios, Mn ([3]; same extractant conditions): 0.06
Distribution ratios, Ru ([3]; same extractant conditions): 0.16
Distribution ratios, Ba [3]: 2.03
Distribution ratios, Cr ([3]; same extractant conditions): 0.02
Distribution ratios, Cs ([3]; same extractant conditions): 0.02
Distribution ratios, Sr ([3]; same extractant conditions): 3.6
Distribution ratios, Zr ([3]; same extractant conditions): 0.018
Distribution ratios, Ca ([3]; same extractant conditions): 0.12
Distribution ratios, Ni ([3]; same extractant conditions): 0.023
Distribution ratios, Al [3]: 0.03
Distribution ratios, Fe ([3]; same extractant conditions): 0.017
Distribution ratios, Na ([3]; same extractant conditions): 0.01
Distribution ratios, Rare-earth ([3]; same extractant conditions): 0.04
Concentration of crown ether in an aqueous phase [4, 8]: 0.301 mol/l × 10^−3
Concentration of crown ether in an aqueous phase [4, 9]: 0.344 mol/l × 10^−3
Concentration of crown ether in an aqueous phase ([4]; solvent Fluoroheptanol n3, H2O): <0.027 mol/l × 10^−3
Concentration of crown ether in an aqueous phase [4, 10]: 0.086 mol/l × 10^−3
Concentration of crown ether in an aqueous phase ([4]; solvent Tetrachloroethane, H2O): 0.258 mol/l × 10^−3
Concentration of crown ether in an aqueous phase [4, 11]: 0.139 mol/l × 10^−3
Concentration of crown ether in an aqueous phase ([4]; solvent Tetrachloropropane, H2O): 0.968 mol/l × 10^−3
Concentration of crown ether in an aqueous phase ([4]; solvent Tetrachloropropane, HNO3 3 mole/l): 1.72 mol/l × 10^−3
Concentration of crown ether in an aqueous phase ([4]; solvent Trichlorethylene, H2O): 0.65 mol/l × 10^−3
Concentration of crown ether in an aqueous phase [4, 12]: 0.94 mol/l × 10^−3
Concentration of crown ether in an aqueous phase ([4]; solvent Trichlorobenzene, H2O): 1.142 mol/l × 10^−3
Concentration of crown ether in an aqueous phase [4, 13]: 2.016 mol/l × 10^−3
Sodium concentration in the organic phase [5, 14]: 0 mol/L
Sodium concentration in the organic phase [5, 15]: 0.003 mol/L
Sodium concentration in the organic phase [5, 16]: 0.005 mol/L
Sodium concentration in the organic phase [5, 17]: 0.009 mol/L
Distribution ratios of sodium ([6]; nitric acid 0 mol/l): 0.1
Distribution ratios of sodium ([6]; nitric acid 0.1 mol/l): 0.12
Distribution ratios of sodium ([6]; nitric acid 0.5 mol/l): 0.12
Distribution ratios of sodium ([6]; nitric acid 1.0 mol/l): 0.05
Distribution ratios of sodium ([6]; nitric acid 3.0 mol/l): 0.02
Distribution ratios of sodium ([6]; nitric acid 5.0 mol/l): 0.01

c1ccc2c(c1)OCCOCCOCCOc1ccccc1OCCOCCO2 [DB21C7, dibenzo-21-crown-7]
Distribution ratio Cesium [7]: 10.7
Distribution ratio before irradiation ([1]; Cs): 2.83
Distribution ratio DMe after irradiation ([1]; Cs, dose 100.0 kGr (10^7 rad)): 2.83
Distribution ratio after irradiation, % of original ([1]; Cs, dose 100.0 kGr (10^7 rad)): 100.0%
Distribution ratio DMe after irradiation ([1]; Cs, dose 285.3 kGr): 2.65
Distribution ratio after irradiation, % of original ([1]; Cs, dose 285.3 kGr): 93.8%
Distribution ratios, Pb ([3]; same extractant conditions): 0.02
Distribution ratios, Rb ([3]; initial 0.12 g/l, same extractant conditions): 0.02
Distribution ratios, Pd ([3]; initial 0.3 g/l, same extractant conditions): 0.03
Distribution ratios, Mn ([3]; same extractant conditions): 0.04
Distribution ratios, Ru ([3]; same extractant conditions): 0.004
Distribution ratios, Ba [3]: 1.02
Distribution ratios, Cr ([3]; same extractant conditions): 0.02
Distribution ratios, Cs ([3]; same extractant conditions): 1.8
Distribution ratios, Sr ([3]; same extractant conditions): 0.02
Distribution ratios, Zr ([3]; same extractant conditions): 0.038
Distribution ratios, Ca ([3]; same extractant conditions): 0.02
Distribution ratios, Ni ([3]; same extractant conditions): 0.03
Distribution ratios, Al [3]: 0.02
Distribution ratios, Fe ([3]; same extractant conditions): 0.014
Distribution ratios, Na ([3]; same extractant conditions): 0.047
Distribution ratios, Rare-earth ([3]; same extractant conditions): 0.04
Concentration of crown ether in an aqueous phase [4, 8]: 0.071 mol/l × 10^−3
Concentration of crown ether in an aqueous phase [4, 9]: 0.112 mol/l × 10^−3
Concentration of crown ether in an aqueous phase ([4]; solvent Fluoroheptanol n3, H2O): <0.025 mol/l × 10^−3
Concentration of crown ether in an aqueous phase [4, 10]: 0.068 mol/l × 10^−3
Concentration of crown ether in an aqueous phase ([4]; solvent Tetrachloroethane, H2O): 0.173 mol/l × 10^−3
Concentration of crown ether in an aqueous phase [4, 11]: 0.159 mol/l × 10^−3
Remarks ([4]; solvent Tetrachloropropane): Insoluble
Concentration of crown ether in an aqueous phase ([4]; solvent Trichlorethylene, H2O): 0.188 mol/l × 10^−3
Concentration of crown ether in an aqueous phase [4, 12]: 0.218 mol/l × 10^−3
Concentration of crown ether in an aqueous phase ([4]; solvent Trichlorobenzene, H2O): 0.168 mol/l × 10^−3
Concentration of crown ether in an aqueous phase [4, 13]: 0.173 mol/l × 10^−3
Sodium concentration in the organic phase [5, 14]: 0 mol/L
Sodium concentration in the organic phase [5, 15]: 0.01 mol/L
Sodium concentration in the organic phase [5, 16]: 0.018 mol/L
Sodium concentration in the organic phase [5, 17]: 0.035 mol/L
Distribution ratios of sodium ([6]; nitric acid 0 mol/l): 0
Distribution ratios of sodium ([6]; nitric acid 0.1 mol/l): 0
Distribution ratios of sodium ([6]; nitric acid 0.5 mol/l): 0.005
Distribution ratios of sodium ([6]; nitric acid 1.0 mol/l): 0.01
Distribution ratios of sodium ([6]; nitric acid 3.0 mol/l): 0.1
Distribution ratios of sodium ([6]; nitric acid 5.0 mol/l): 0.12
